Results taken from the NIST ThermoML archive (doi:10.1016/j.fluid.2007.08.006).
± gives the expanded uncertainty stated by the source.

Details: 101.33 kPa, Liquid; for viscosity: Capillary tube (Ostwald / Ubbelohde) method; for mass density: Pycnometric method; for speed of sound: Sing-around technique in a fixed-path interferometer

mass density (303.15 K) [kg/m3]	speed of sound (303.15 K) [m/s]	viscosity (308.15 K) [mPa·s]	mass density (308.15 K) [kg/m3]	speed of sound (308.15 K) [m/s]	viscosity (313.15 K) [mPa·s]	mass density (313.15 K) [kg/m3]	speed of sound (313.15 K) [m/s]	SMILES	viscosity (303.15 K) [mPa·s]
927.2 ± 4.9	1404.6 ± 7.5	0.693 ± 0.018	919.7 ± 4.8	1400.8 ± 7.5	0.677 ± 0.018	916.4 ± 4.8	1420.8 ± 7.6	CN(C)C=O [dimethylformamide]	0.715 ± 0.018
772.4 ± 3.4	1135.4 ± 6.8	0.658 ± 0.017	771.6 ± 3.4	1133.2 ± 6.8	0.617 ± 0.016	771.2 ± 3.4	1130.8 ± 6.8	CCO [ethanol]	–

SMILES	mass density (303.15 K) [kg/m3]	speed of sound (303.15 K) [m/s]	viscosity (308.15 K) [mPa·s]	mass density (308.15 K) [kg/m3]	speed of sound (308.15 K) [m/s]	viscosity (313.15 K) [mPa·s]	mass density (313.15 K) [kg/m3]	speed of sound (313.15 K) [m/s]	viscosity (303.15 K) [mPa·s]
CCC(C)=O [butanone]	802.5 ± 3.7	1168.6 ± 6.9	0.334 ± 0.009	800.1 ± 3.6	1157.2 ± 6.9	0.315 ± 0.008	800.3 ± 3.7	1130.4 ± 6.8	0.352 ± 0.009
